One test deals with T1, mTOR kinase (Homo sapiens, UniProt P42345).
T1 construct: purchased Millipore, US
The experiment in a line: mTOR kinase TR-FRET assay. In kind it is biochemical. The method, boiled down: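 TR-FRET with ULight-p70 S6K (Thr 389) peptide (50 nM) and 20 μM ATP in 50 mM HEPES pH 7.5, 1 mM EGTA, 3 mM MnCl2; compound pre-incubated with enzyme before substrate addition, reaction at rt, EDTA-stopped. Eu anti-phospho antibody read 665/615 nm; IC50 from sigmoidal dose-response fit.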

The target of another test is T2, B-RAFV600E (Homo sapiens, UniProt P15056, V600E).
T2 construct: purchased Millipore, USA 14-557
Kind of test: B-RAFV600E radiometric assay. Format: biochemical. Particulars: read-out: Kinase assay B-Raf. The method, boiled down: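 B-RAFV600E was preincubated 45 min at rt with compound in 1% DMSO. MEK-K97M (0.5 μg), 5 μM final cold ATP and [γ-32P]ATP were then added for 2 h at rt. Phosphorylated MEK was captured on P81 paper and scintillation-counted; IC50 came from a sigmoidal dose-response fit.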

In another test the test system is A375 cells. The experiment in a line: XTT assay for cell viability, A375 cells. In kind it is cell-based. Particulars: Homo sapiens, A-375, 72 h. As for the experimental part: Cell lines (A375 ATCC No. CRL-1619, A2058 ATCC No. CRL-11147 and RKO ATCC No. CRL-2577, American Type Culture Collection (ATCC), Manassas Va.) once attaining ˜80% confluency were trypsinized, centrifuged and resuspended in fresh media. Cells (1000-2000/per well) were seeded in 96-well plate and incubated over-night at 37° C. in a 5% CO2 incubator. Compound dilutions were prepared in 100% DMSO followed by dilutions in the respective media. The cells were treated with NCEs for 72 h at 37° C. in 5% CO2 incubator. After 72 h, freshly prepared XTT (1 mg/ml)/PMS (25 μM) solution was added, incubated for 2 to 3 h at 37° C. and the absorbance was measured at 450 nm using an ELISA plate reader. Keeping DMSO control as 100%, the effect of the compound to inhibit the cell proliferation was calculated and the GI50 values were determined using sigmoidal dose response curve fit in GraphPad Prism® v5 software.

The subject of another test is pERK in A375 cells. The experiment in a line: In Cell Western (ICW) assay, pERK in A375 cells. Format: cell-based. Particulars: Homo sapiens, A-375, 3 h treatment. As for the experimental part: Cell lines A375, A2058 and RKO obtained from the ATCC as provided above, were grown, and after attaining ˜80% confluency were trypsinized, centrifuged and resuspended in fresh media. The cells were seeded at the specified density (20,000 to 50,000) in a 96-well format black-well clear bottom plate (Corning) and incubated overnight at 37° C. in a 5% CO2 incubator. The next day, compound dilutions of test compounds were prepared in 100% DMSO followed by dilutions in respective media. Treatment of test compounds was performed for 3 h at 37° C. in 5% CO2 incubator. Following 3 h drug treatment, the conditional media was discarded and the cells were washed once with cPBS (PBS containing 0.1% magnesium chloride hexahydrate and 0.1% anhydrous calcium chloride) and fixed with 4% paraformaldehyde in cPBS for 1 h at rt. After fixing, the cells were given three washes using cPBST (cPBS containing 0.1% Triton™ X-100 reagent) and then blocked using blocking solution (5% skimmed milk powder or 5% BSA prepared in cPBST) for 2 h at rt with shaking at 300 rpm. The cells were again washed thrice with cPBST and incubated with primary antibody phospho-p44/42 MAPK(Erk1/2)(Thr202/204) antibody (Cell Signaling, Catalog # 9101L), phospho S6 ribosomal protein (Cell Signaling, Catalog #4858L), phospho AKT (Thr 308) (Cell Signaling, Catalog #9275) or phospho AKT (Ser 473) (Cell Signaling, Catalog #4060L) in specified dilutions (1:500-1:2500), prepared in respective blocking solutions, in a racker overnight at 4° C. The next day, the cells were washed with 1× Delfia® wash buffer (4×1 wash) and incubated with secondary antibody (Delfia®-Eu-N1 labeled anti-rabbit antibody; PerkinElmer, Catalog #AD0105; dilutions: 1:2000 to 1:6000 in Delfia® assay buffer (PerkinElmer, Catalog #1244-111)) for 2 h at rt in the dark at 300 rpm. The cells were then given four washes with 1× Delfia® wash buffer and incubated with Wallac Delfia® Enhancement solution (100 μL; PerkinElmer, Catalog #1244-105) for 20 min at rt in the dark at 300 rpm. The fluorescence emission was then read at 615 nm with an excitation wavelength of 340 nm using a Victor V5 Fluorometer (Perkin Elmer, US). The cells were then washed once with 1×cPBS and incubated with 100 μL of 0.5 mg/mL of Hoechst 33258 dye prepared in cPBS and read at 460 nm with 355 nm excitation, thereby evaluating the correction factor.
The % inhibition for the test compounds of formula (I) (new chemical entities (NCEs)) was calculated keeping DMSO control as 0% and the IC50 values were determined using sigmoidal dose response curve fit in GraphPad Prism® v5 software.

The record followed here is US9499495B2, “Quinazolines and azaquinazolines as dual inhibitors of RAS/RAF/MEK/ERK and PI3K/AKT/PTEN/mTOR pathways” (Asana Biosciences, LLC, priority 2013, dated 2016).

T2 sequence (P15056 416-766 V600E limits assumed): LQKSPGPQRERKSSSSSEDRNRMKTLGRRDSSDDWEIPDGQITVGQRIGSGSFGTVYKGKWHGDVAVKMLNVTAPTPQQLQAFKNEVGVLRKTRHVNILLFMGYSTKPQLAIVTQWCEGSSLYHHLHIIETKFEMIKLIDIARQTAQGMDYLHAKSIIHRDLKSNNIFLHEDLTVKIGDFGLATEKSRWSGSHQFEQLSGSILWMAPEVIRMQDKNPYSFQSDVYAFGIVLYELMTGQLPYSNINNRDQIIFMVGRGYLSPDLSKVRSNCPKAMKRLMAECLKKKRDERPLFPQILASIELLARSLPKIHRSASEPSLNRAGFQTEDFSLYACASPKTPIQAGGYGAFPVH
T1 sequence (P42345 1362-2549 limits assumed): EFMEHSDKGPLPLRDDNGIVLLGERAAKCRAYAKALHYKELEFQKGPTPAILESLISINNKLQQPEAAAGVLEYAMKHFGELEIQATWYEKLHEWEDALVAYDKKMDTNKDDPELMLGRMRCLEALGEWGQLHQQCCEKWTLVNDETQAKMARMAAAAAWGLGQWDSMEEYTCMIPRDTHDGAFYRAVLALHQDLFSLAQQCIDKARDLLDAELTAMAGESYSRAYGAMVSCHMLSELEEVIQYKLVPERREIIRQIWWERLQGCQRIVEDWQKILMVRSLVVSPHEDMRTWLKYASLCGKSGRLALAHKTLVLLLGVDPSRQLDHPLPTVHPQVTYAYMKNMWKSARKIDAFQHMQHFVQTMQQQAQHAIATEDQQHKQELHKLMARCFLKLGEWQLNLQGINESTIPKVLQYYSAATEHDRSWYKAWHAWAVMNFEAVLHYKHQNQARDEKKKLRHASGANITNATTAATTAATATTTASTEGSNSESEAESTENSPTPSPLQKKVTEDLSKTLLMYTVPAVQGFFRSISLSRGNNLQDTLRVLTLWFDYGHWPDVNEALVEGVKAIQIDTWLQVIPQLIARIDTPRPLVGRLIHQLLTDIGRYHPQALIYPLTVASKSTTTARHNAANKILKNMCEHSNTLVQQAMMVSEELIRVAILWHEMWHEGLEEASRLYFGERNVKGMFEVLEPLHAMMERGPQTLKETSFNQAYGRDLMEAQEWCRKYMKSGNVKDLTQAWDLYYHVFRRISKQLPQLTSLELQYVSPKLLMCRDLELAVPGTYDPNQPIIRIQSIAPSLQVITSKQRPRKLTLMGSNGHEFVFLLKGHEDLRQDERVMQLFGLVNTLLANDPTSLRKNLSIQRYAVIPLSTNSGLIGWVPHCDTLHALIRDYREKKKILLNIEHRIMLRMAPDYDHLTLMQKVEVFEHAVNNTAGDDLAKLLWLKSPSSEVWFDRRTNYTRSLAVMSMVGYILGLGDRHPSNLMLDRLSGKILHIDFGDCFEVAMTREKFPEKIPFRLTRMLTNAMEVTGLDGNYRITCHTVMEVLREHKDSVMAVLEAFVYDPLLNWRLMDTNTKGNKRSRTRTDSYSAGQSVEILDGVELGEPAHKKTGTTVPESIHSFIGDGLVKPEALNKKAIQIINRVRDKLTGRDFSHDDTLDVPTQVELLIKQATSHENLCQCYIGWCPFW

As for `Nc1ccc(-c2nc(N3CCOCC3)c3cc(-c4cccc(NS(=O)(=O)CCCF)c4F)cc(N4CCCC4)c3n2)cn1` [Example 70, N-(3-(2-(6-aminopyridin-3-yl)-4-morpholino-8-(pyrrolidin-1-yl)quinazolin-6-yl)-2-fluorophenyl)-3-fluoropropane-1-sulfonamide], the IC50 against mTOR kinase lay within 100 to 1000 nM; at B-RAFV600E, 1 to 100 nM; in the test with A375 cells, 1 to 100 nM; in the test with pERK in A375 cells, 100 to 1000 nM.
As to `CCCS(=O)(=O)Nc1cccc(-c2cc(OC)c3nc(-c4ccc(N)nc4)nc(N4CCOCC4)c3c2)c1F` [Example 17, N-(3-(2-(6-aminopyridin-3-yl)-8-methoxy-4-morpholinoquinazolin-6-yl)-2-fluorophenyl)propane-1-sulfonamide], the IC50 was in the range of 1 to 100 nM on mTOR kinase, 1 to 100 nM on B-RAFV600E, 100 to 1000 nM in the test with A375 cells and 100 to 1000 nM in the test with pERK in A375 cells.
In the case of `NC(=O)COc1cc(-c2cccc(NS(=O)(=O)CCCF)c2F)cc2c(N3CCOCC3)nc(-c3ccc(N)nc3)nc12` [Example 60, 2-((2-(6-aminopyridin-3-yl)-6-(2-fluoro-3-(3-fluoropropylsulfonamido)phenyl)-4-morpholino-quinazolin-8-yl)oxy)acetamide], the IC50 on mTOR kinase was in the range of 1 to 100 nM; at B-RAFV600E it was 1 to 100 nM; in the test with A375 cells, 1000 to 10000 nM; with pERK in A375 cells, 1000 to 10000 nM.
Take `COc1cc(-c2c(F)ccc(NS(=O)(=O)c3cc(F)ccc3F)c2F)cc2c(N3CCOCC3)nc(-c3ccc(N)nc3)nc12` [Example 78, N-(3-(2-(6-aminopyridin-3-yl)-8-methoxy-4-morpholinoquinazolin-6-yl)-2,4-difluorophenyl)-2,5-difluorobenzenesulfonamide]: the IC50 is 100 to 1000 nM on mTOR kinase, 1 to 100 nM at B-RAFV600E, 100 to 1000 nM with A375 cells and 1 to 100 nM in the test with pERK in A375 cells.
For the compound `CCCS(=O)(=O)Nc1ccc(F)c(-c2cc(OC)c3nc(-c4ccc(N)nc4)nc(N4CCOCC4)c3c2)c1F` [Example 75, N-(3-(2-(6-aminopyridin-3-yl)-8-methoxy-4-morpholinoquinazolin-6-yl)-2,4-difluorophenyl)propane-1-sulfonamide], the IC50 on mTOR kinase lay within 1 to 100 nM; at B-RAFV600E, 1 to 100 nM; in the test on A375 cells, 100 to 1000 nM; in the test on pERK in A375 cells, 1 to 100 nM.
For `CCCS(=O)(=O)Nc1cccc(-c2cc(OC)c3nc(-c4cnc(N)nc4)nc(N4CCOCC4)c3c2)c1F` [Example 15, N-(3-(2-(2-aminopyrimidin-5-yl)-8-methoxy-4-morpholinoquinazolin-6-yl)-2-fluorophenyl)propane-1-sulfonamide], the IC50 against mTOR kinase, at B-RAFV600E, in the test on A375 cells and in the test with pERK in A375 cells was 100 to 1000 nM each time.
Take `CCCS(=O)(=O)Nc1ccc(Cl)c(-c2cc(OC)c3nc(-c4ccc(N)nc4)nc(N4CCOCC4)c3c2)c1F` [Example 80, N-(3-(2-(6-aminopyridin-3-yl)-8-methoxy-4-morpholinoquinazolin-6-yl)-4-chloro-2-fluorophenyl)propane-1-sulfonamide]: the IC50 against mTOR kinase lay within 100 to 1000 nM; on B-RAFV600E it was 1 to 100 nM; in the test with A375 cells it was 100 to 1000 nM; in the test on pERK in A375 cells it was 100 to 1000 nM.
Turning to `COc1cc(-c2cccc(NS(=O)(=O)C(C)C)c2F)cc2c(N3CCOCC3)nc(-c3ccc(N)nc3)nc12` [Example 33, N-(3-(2-(6-aminopyridin-3-yl)-8-methoxy-4-morpholinoquinazolin-6-yl)-2-fluorophenyl)propane-2-sulfonamide], the IC50 against mTOR kinase, on B-RAFV600E, with A375 cells and with pERK in A375 cells was 100 to 1000 nM each time.
On to `CCCS(=O)(=O)Nc1cccc(-c2cc(OC)c3nc(-c4ccc(N)nc4F)nc(N4CCOCC4)c3c2)c1F` [Example 18, N-(3-(2-(6-amino-2-fluoropyridin-3-yl)-8-methoxy-4-morpholinoquinazolin-6-yl)-2-fluorophenyl)propane-1-sulfonamide], for which the IC50 at mTOR kinase, on B-RAFV600E, in the test with A375 cells and in the test on pERK in A375 cells was 100 to 1000 nM throughout.
Consider `CCCS(=O)(=O)Nc1cccc(-c2cc(OC)c3nc(-n4c(C(F)F)nc5ccccc54)nc(N4CCOCC4)c3c2)c1F` [Example 9, N-(3-(2-(2-(difluoromethyl)-1H-benzo[d]imidazol-1-yl)-8-methoxy-4-morpholinoquinazolin-6-yl)-2-fluorophenyl)propane-1-sulfonamide], for which the IC50 is 100 to 1000 nM on mTOR kinase, 1 to 100 nM on B-RAFV600E, 100 to 1000 nM with A375 cells and 100 to 1000 nM in the test with pERK in A375 cells.
As to `COc1cc(-c2cccc(NS(=O)(=O)c3cccs3)c2F)cc2c(N3CCOCC3)nc(-c3ccc(N)nc3)nc12` [Example 38, N-(3-(2-(6-aminopyridin-3-yl)-8-methoxy-4-morpholinoquinazolin-6-yl)-2-fluorophenyl)thiophene-2-sulfonamide], the IC50 was in the range of 100 to 1000 nM on mTOR kinase, 1 to 100 nM at B-RAFV600E, 100 to 1000 nM in the test with A375 cells and 1 to 100 nM in the test on pERK in A375 cells.
In the case of `COc1cc(-c2cccc(NS(=O)(=O)CC(C)C)c2F)cc2c(N3CCOCC3)nc(-c3cnc(N)nc3)nc12` [Example 20, N-(3-(2-(2-aminopyrimidin-5-yl)-8-methoxy-4-morpholinoquinazolin-6-yl)-2-fluorophenyl)-2-methylpropane-1-sulfonamide], the IC50 against mTOR kinase fell in the range of 100 to 1000 nM; on B-RAFV600E, 1 to 100 nM; in the test on A375 cells, 100 to 1000 nM; in the test on pERK in A375 cells it was 100 to 1000 nM.
Regarding `CCCS(=O)(=O)Nc1ccc(F)c(-c2cc(OC)c3nc(-c4cnc(N)nc4)nc(N4CCOCC4)c3c2)c1F` [Example 6, N-(3-(2-(2-aminopyrimidin-5-yl)-8-methoxy-4-morpholinoquinazolin-6-yl)-2,4-difluorophenyl)propane-1-sulfonamide], the IC50 is 1 to 100 nM on mTOR kinase, 1 to 100 nM at B-RAFV600E, 100 to 1000 nM in the test with A375 cells and 100 to 1000 nM in the test with pERK in A375 cells.
For `COc1cc(-c2cccc(NS(=O)(=O)c3c(F)cccc3F)c2F)cc2c(N3CCOCC3)nc(-c3ccc(N)nc3)nc12` [Example 19, N-(3-(2-(6-aminopyridin-3-yl)-8-methoxy-4-morpholinoquinazoIin-6-yl)-2-fluorophenyl)-2,6-difluorobenzenesulfonamide], the IC50 on mTOR kinase fell in the range of 100 to 1000 nM; at B-RAFV600E, 1 to 100 nM; in the test on A375 cells, 100 to 1000 nM; in the test on pERK in A375 cells, 100 to 1000 nM.
With `COc1cc(-c2cccc(NS(=O)(=O)CCCF)c2F)cc2c(N3CCOCC3)nc(-c3cnc(N)nc3)nc12` [Example 27, N-(3-(2-(2-aminopyrimidin-5-yl)-8-methoxy-4-morpholinoquinazolin-6-yl)-2-fluorophenyl)-3-fluoropropane-1-sulfonamide], the IC50 at mTOR kinase fell in the range of 100 to 1000 nM; on B-RAFV600E, 1 to 100 nM; in the test with A375 cells it was 100 to 1000 nM; in the test with pERK in A375 cells, 1 to 100 nM.
